From patent US20260159525A1, “TRICYCLIC HETEROCYCLES” (Merck Patent GmbH, priority 2021, published 2026)

System: YAP-TEAD interaction
Experiment: SK-HEP-1 reporter assay (8x TEAD responsive elements driving NanoLuc luciferase)
Format: cell-based
Conditions: Homo sapiens, SK-HEP1, SK-HEP-1 cells, 24 hour incubation
Procedure: To identify inhibitors of YAP-TEAD interaction, 8× TEAD responsive elements driving the NanoLuc® luciferase gene were stably integrated into SK-HEP-1 cells (ECACC #: 91091816).
For the assay, cells were treated in duplicates with the test compounds in a 10-point dose, with the top concentration starting at 30 μM (final concentration in assay). After a 24 hour incubation at 37° C., 95% rH, and 5% CO2, a luciferase substrate/lysis reagent mix (NanoGlo™, Promega) was added to the cells, allowing the quantification of cellular luciferase activity.
Cell Media: The cells were cultured in the following media: MEM, +10% FBS, +1× GlutaMAX, +1 mM Sodium-Pyruvate, +100 μM Non-essential amino acids, +0.1 mg/ml Hygromycin. The media used for the assay was: MEM (w/o Phenol Red), +10% FBS, +1× GlutaMAX, +1 mM Sodium-Pyruvate, +100 μM Non-essential amino acids, +0.5% Pen/Strep
Reagents: The reagents used are listed below:
Cell culture: The cells were examined using an inverted microscope to check for health and cell density. To dissociate adherent cells, the monolayer of cells was washed once with pre-warmed PBS. After removing the PBS, 3 ml pre-warmed Accutase® was added to a F75 flask, dispersed evenly and the flask was allowed to sit in incubator for ˜4-5 minutes.
When a single cell suspension was obtained, 7 ml of prewarmed growth media was added and resuspended with the cells. The cell suspension was transferred to a sterile 15 ml conical centrifuge tube, and spun for 5 min at 300×g, RT. The supernatant was discarded and the pellet was resuspended in 10 ml of pre-warmed growth media.
The total cell count was determined, and 20 μl of the desired cell number was added to each well of a 384 well plate using a Multidrop Combi. The plates were then incubated for 24 hours at 37° C., 95% rH, and 5% CO2.
Compound treatment: 24 hours after seeding, the cells were treated with compounds.
A 1:333 dilution of compounds, diluted in DMSO, was made to get a final concentration of 0.3% DMSO per well. To transfer the compounds to the assay plate, 120 nl was shot from Labcyte low dead volume plates to the cell plates containing 20 μl media/well with the ECHO 555 liquid handling system. After treatment, the cells were fed with 20 μl fresh pre-warmed assay media using a Multidrop combi.
The assay plates were then incubated for another 24 h at 37° C., 95% rH, and 5% CO2.
Luciferase readout: 24 h after treatment, the plates were taken out of the incubator and were allowed to equilibrate to RT. 30 μl of NanoGlo® reagent was added to the plates in the dark. Plates were shaken for 20 min on a Teleshake (˜1500 rpm) in the dark. The luminescence was then measured using an EnVision microplate reader. The IC50 values were generated using Genedata Screener®.

[1] = number, or n.d. (x) = not detectable below threshold x

Cn1cc2c3cc(C(=O)N[C@H](CO)C4CCC4)sc3n(-c3ccc(C(F)(F)F)cc3)c2n1 (single isomer, unassigned) [Compound 56]
IC50 [1]: > 9.5 µM

Cn1cc2c3cc(C#N)sc3n(-c3ccc(C(F)(F)F)cc3)c2n1 [Compound 94, 4-methyl-7-[4-(trifluoromethyl)phenyl]-9-thia-4,5,7-triazatricyclo[6.3.0.0^2,6]undeca-1(8),2,5,10-tetraene-10-carbonitrile]
IC50 (group symbols): 0.1 to 10 µM

CNC(=O)c1cc2c(s1)c1nc(C)sc1n2-c1ccc(OC(F)(F)F)cc1 [Compound 26, N,4-dimethyl-7-[4-(trifluoromethoxy)phenyl]-5,11-dithia-3,7-diazatricyclo[6.3.0.0^2,6]undeca-1(8),2(6),3,9-tetraene-10-carboxamide]
IC50 (group symbols): 0.1 to 10 µM

C[C@H](CO)NC(=O)c1cc2c3nn(C)nc3n(-c3ccc(C(F)(F)F)cc3)c2s1 [Compound 106, N-[(2R)-1-hydroxypropan-2-yl]-4-methyl-7-[4-(trifluoromethyl)phenyl]-9-thia-3,4,5,7-tetraazatricyclo[6.3.0.0^2,6]undeca-1(8),2,5,10-tetraene-10-carboxamide]
IC50 (group symbols): 0.1 to 10 µM

C[C@H](CO)NC(=O)c1cc2c3cn(C)nc3n(-c3ccc(SC(F)(F)F)cc3)c2s1 [Compound 84, N-[(2R)-1-hydroxypropan-2-yl]-4-methyl-7-{4-[(trifluoromethyl)sulfanyl]phenyl}-9-thia-4,5,7-triazatricyclo[6.3.0.0^2,6]undeca-1(8),2,5,10-tetraene-10-carboxamide]
IC50 (group symbols): 0.01 to 0.1 µM

Cn1cc2c3cc(C(=O)NCC4CNC4)sc3n(-c3ccc(C(F)(F)F)cc3)c2n1 [Compound 60, N-[(azetidin-3-yl)methyl]-4-methyl-7-[4-(trifluoromethyl)phenyl]-9-thia-4,5,7-triazatricyclo[6.3.0.0^2,6]undeca-1(8),2,5,10-tetraene-10-carboxamide]
IC50 (group symbols): 0.1 to 10 µM

Cn1nc2c3sc(C(=O)N4CCC(O)C4)cc3n(-c3ccc(C(F)(F)F)cc3)c2n1 (centres unmarked) [Compound 9, 1-{4-methyl-7-[4-(trifluoromethyl)phenyl]-11-thia-3,4,5,7-tetraazatricyclo[6.3.0.0^2,6]undeca-1(8),2,5,9-tetraene-10-carbonyl}pyrrolidin-3-ol]
IC50 (group symbols): 0.1 to 10 µM

C[C@@H](CO)NC(=O)c1cc2c3nn(C)nc3n(-c3ccc(C(F)(F)F)cc3)c2s1 [Compound 110, N-[(2S)-1-hydroxypropan-2-yl]-4-methyl-7-[4-(trifluoromethyl)phenyl]-9-thia-3,4,5,7-tetraazatricyclo[6.3.0.0^2,6]undeca-1(8),2,5,10-tetraene-10-carboxamide]
IC50 [1]: > 30 µM

C[C@H](CO)NC(=O)c1cc2c3cn(C)nc3n(-c3ccc(C(F)(F)F)nc3)c2s1 [Compound 86, N-[(2R)-1-hydroxypropan-2-yl]-4-methyl-7-[6-(trifluoromethyl)pyridin-3-yl]-9-thia-4,5,7-triazatricyclo[6.3.0.0^2,6]undeca-1(8),2,5,10-tetraene-10-carboxamide]
IC50 [1]: > 30 µM

Cn1cc2c3cc(C(=O)N[C@@H](CO)c4ccccn4)sc3n(-c3ccc(C(F)(F)F)cn3)c2n1 [Compound 113, N-[(1R)-2-hydroxy-1-(pyridin-2-yl)ethyl]-4-methyl-7-[5-(trifluoromethyl)pyridin-2-yl]-9-thia-4,5,7-triazatricyclo[6.3.0.0^2,6]undeca-1(8),2,5,10-tetraene-10-carboxamide]
IC50 [1]: > 9.5 µM

Cn1nc2c3cc(C(=O)N4CC[C@@H](O)C4)sc3n(-c3ccc(C(F)(F)F)cc3)c2n1 [Compound 108, (3R)-1-{4-methyl-7-[4-(trifluoromethyl)phenyl]-9-thia-3,4,5,7-tetraazatricyclo[6.3.0.0^2,6]undeca-1(8),2,5,10-tetraene-10-carbonyl}pyrrolidin-3-ol]
IC50 (group symbols): > 10 µM

CNC(=O)c1cc2c(s1)c1nc(C)sc1n2-c1ccc(C(F)(F)F)cc1 [Compound 23, N,4-dimethyl-7-[4-(trifluoromethyl)phenyl]-5,11-dithia-3,7-diazatricyclo[6.3.0.0^2,6]undeca-1(8),2(6),3,9-tetraene-10-carboxamide]
IC50 (group symbols): > 10 µM

Cn1nc2c3cc(C(=O)N4CC[C@H](O)C4)sc3n(-c3ccc(C(F)(F)F)cc3)c2n1 [Compound 103, (3S)-1-{4-methyl-7-[4-(trifluoromethyl)phenyl]-9-thia-3,4,5,7-tetraazatricyclo[6.3.0.0^2,6]undeca-1(8),2,5,10-tetraene-10-carbonyl}pyrrolidin-3-ol]
IC50 (group symbols): 0.1 to 10 µM

C[C@H](CO)NC(=O)c1cc2c(s1)c1cn(C)nc1n2-c1ccc(C(F)(F)F)cc1 [Compound 16, N-[(2R)-1-hydroxypropan-2-yl]-10-methyl-7-[4-(trifluoromethyl)phenyl]-3-thia-7,9,10-triazatricyclo[6.3.0.0^2,6]undeca-1(11),2(6),4,8-tetraene-4-carboxamide]
IC50 (group symbols): > 10 µM

Cn1cc2c3cc(C(=O)N[C@@H](CO)C4CCC4)sc3n(-c3ccc(C(F)(F)F)cc3)c2n1 (single isomer, unassigned) [Compound 55]
IC50 [1]: > 9.5 µM

C[C@H](CO)NC(=O)c1cc2c3cn(C)nc3n(-c3ccc(C(F)F)cc3)c2s1 [Compound 107, 7-[4-(difluoromethyl)phenyl]-N-[(2R)-1-hydroxypropan-2-yl]-4-methyl-9-thia-4,5,7-triazatricyclo[6.3.0.0^2,6]undeca-1(8),2,5,10-tetraene-10-carboxamide]
IC50 (group symbols): 0.1 to 10 µM

Cn1cc2c3sc(C(=O)NC4CC4)cc3n(-c3ccc(C(F)(F)F)cc3)c2n1 [compound 12]
IC50 (group symbols): > 10 µM

Cn1cc2c3cc(C(=O)O)sc3n(-c3ccc(S(F)(F)(F)(F)F)cc3)c2n1 [Compound 98, 4-methyl-7-[4-(pentafluoro-lambda6-sulfanyl)phenyl]-9-thia-4,5,7-triazatricyclo[6.3.0.0^2,6]undeca-1(8),2,5,10-tetraene-10-carboxylic acid]
IC50 (group symbols): 0.1 to 10 µM

Cn1cc2c3sc(C(=O)NCCO)cc3n(-c3ccc(C(F)(F)F)cc3)c2n1 [Compound 13, N-(2-hydroxyethyl)-10-methyl-7-[4-(trifluoromethyl)phenyl]-3-thia-7,9,10-triazatricyclo[6.3.0.0^2,6]undeca-1(11),2(6),4,8-tetraene-4-carboxamide]
IC50 (group symbols): > 10 µM

Cn1nc2c3sc(C(=O)NC4CC4)cc3n(-c3ccc(OC(F)(F)F)cc3)c2n1 [Compound 30, N-cyclopropyl-4-methyl-7-[4-(trifluoromethoxy)phenyl]-11-thia-3,4,5,7-tetraazatricyclo[6.3.0.0^2,6]deca-1(8),2,5,9-tetraene-10-carboxamide]
IC50 (group symbols): 0.1 to 10 µM

Cn1cc2c3cc(C(=O)NC[C@H](O)CO)sc3n(-c3ccc(C(F)(F)F)cc3)c2n1 (single isomer, unassigned) [Compound 129]
IC50 [1]: > 0.95 µM

Cn1cc2c3cc(C(=O)O)sc3n(-c3ccc(OC(F)(F)F)cc3)c2n1 [Compound 54, 4-methyl-7-[4-(trifluoromethoxy)phenyl]-9-thia-4,5,7-triazatricyclo[6.3.0.0^2,6]undeca-1(8),2,5,10-tetraene-10-carboxylic acid]
IC50 (group symbols): 0.001 to 0.01 µM

Cn1cc2c3cc(C(N)=O)sc3n(-c3ccc(C(F)(F)F)cc3)c2n1 [Compound 89, 4-methyl-7-[4-(trifluoromethyl)phenyl]-9-thia-4,5,7-triazatricyclo[6.3.0.0^2,6]undeca-1(8),2,5,10-tetraene-10-carboxamide]
IC50 [1]: 0.98 µM

Cn1nc2c3sc(C(=O)NC4CC4)cc3n(-c3ccc(C(F)(F)F)cc3)c2n1 [Compound 6, N-cyclopropyl-4-methyl-7-[4-(trifluoromethyl)phenyl]-11-thia-3,4,5,7-tetraazatricyclo[6.3.0.0^2,6]undeca-1(8),2,5,9-tetraene-10-carboxamide]
IC50 (group symbols): 0.1 to 10 µM

Cn1nc2c3cc(C(=O)N[C@@H](CO)c4ccccn4)sc3n(-c3ccc(C(F)(F)F)cc3)c2n1 [Compound 104, N-[(1R)-2-hydroxy-1-(pyridin-2-yl)ethyl]-4-methyl-7-[4-(trifluoromethyl)phenyl]-9-thia-3,4,5,7-tetraazatricyclo[6.3.0.0^2,6]undeca-1(8),2,5,10-tetraene-10-carboxamide]
IC50 (group symbols): 0.1 to 10 µM

COCC[C@H](CO)NC(=O)c1cc2c3cn(C)nc3n(-c3ccc(C(F)(F)F)cc3)c2s1 (single isomer, unassigned) [Compound 58]
IC50 (group symbols): > 10 µM
